Measurements as given in patent US20260193236A1 (Protego Biopharma, Inc., priority 2022, published 2026).
Where two headings read alike, the source gives them in different places.

System: IRE1-XBP1s (XBP1-RLuc splicing reporter in HEK293 T-REx cells)
Assay: IRE1-XBP1s activation assay (XBP1-RLuc splicing reporter, HEK293 T-REx cells, luminescence relative to thapsigargin)
Assay type: cell-based
Conditions: 18 h, read-out: Activity (IRE1-XBP1s activation, luminescence as % signal relative to thapsigargin, % Tg)
Method: IRE1-XBP1s activation Assay: HEK293 T-REx cells stably expressing the XBP1-RLuc splicing reporter were treated with an IRE1-XBP1s activator provided herein (10 μM) in the presence or absence of the IRE1 active site inhibitor 4μ8C (32 μM) for 18 h. Luminescence was shown as the percentage signal relative to thapsigargin (Tg) (500 nM, 18 h).

[1] = compound 10 μM, HEK293 T-REx XBP1-RLuc reporter cells, relative to thapsigargin (Tg) 500 nM

For Cc1ccc(OCCN(C)C(=O)Cn2cc(NC(=O)CCOc3cncnc3N)cn2)cc1 [Compound 117], the activation at 10 µM [1] was < 30%.

In the case of Cc1ccc(OCCN(C)C(=O)Cn2cc(NC(=O)CCOc3c(C)ccnc3C)cn2)cc1 [Compound 14], the activation at 10 µM [1] is reported as 30 to 50%.

With C#CCCC1(CCC(=O)Nc2ncccc2OCCC(=O)Nc2cnn(CC(=O)N(C)CCOc3ccc(C)cc3)c2)N=N1 [Compound 296, 3-(3-but-3-ynyldiazirin-3-yl)-N-[3-[3-[[1-[2-[methyl-[2-(4-methylphenoxy)ethyl]amino]-2-oxo-ethyl]pyrazol-4-yl]amino]-3-oxo-propoxy]-2-pyridyl]propanamide] the activation at 10 µM [1] was < 30%.

In the case of Cc1ccc(OCCN(C)C(=O)Cn2cc(NC(=O)CCNc3ccc(Cl)nc3)cn2)cc1 [Compound 178], the activation at 10 µM [1] is reported as 30 to 50%.

Cc1ccc(OCCN(C)C(=O)Cn2cc(NC(=O)CCOc3ccc(C(F)(F)F)cc3)cn2)cc1 [Compound 44] was tested, and the activation at 10 µM [1] was < 30%.

For Cc1ccc(OCCC(=O)Nc2cnn(CC(=O)N(C)CCOc3ccc(C4(F)CC4)cc3)c2)c(F)c1 [Compound 89], the activation at 10 µM [1] was < 30%.

In the case of Cc1ccc(OCCC(=O)Nc2cnn(CC(=O)N(C)CCOc3ncn(C)n3)c2)c(F)c1 [Compound 90], the activation at 10 µM [1] is reported as < 30%.

For C=Cc1cncc(F)c1NCCC(=O)Nc1cnn(CC(=O)N(C)CCOc2ccc(C)cc2)c1 [Compound 251], the activation at 10 µM [1] was > 50%.

With CN(CCOc1ccc(C(F)(F)F)cn1)C(=O)Cn1cc(NC(=O)CCNc2ccnc(O)n2)cn1 [Compound 265] the activation at 10 µM [1] was < 30%.

With COc1ccc(OCCN(C)C(=O)Cn2cc(NC(=O)CCNc3ccnc(OC)c3)cn2)cc1 [Compound 169] the activation at 10 µM [1] was > 50%.

With CN(CCOc1ccc(C(F)(F)F)cn1)C(=O)Cn1cc(NC(=O)CCNc2c(F)cncc2Cl)cn1 [Compound 213] the activation at 10 µM [1] was > 50%.

CN(CCOc1ccc(C(F)(F)F)cn1)C(=O)Cn1cc(NC(=O)CCNc2ccnc(F)n2)cn1 [Compound 267] showed an activation at 10 µM [1] of 30 to 50%.

With Cc1ccc(OCCN(C)C(=O)Cn2cc(NC(=O)CCNc3ccnc4ncnn34)cn2)cc1 [Compound 200] the activation at 10 µM [1] was < 30%.

COc1ccc(OCCN(C)C(=O)Cn2cc(NC(=O)CCNc3cc(C)ncc3C)cn2)cc1 [Compound 168] was tested, and the activation at 10 µM [1] was 30 to 50%.

In the case of Cc1ccc(OCCN(C)C(=O)Cn2cc(NC(=O)C(O)CNc3ncc(F)cn3)cn2)cc1 (stereo not shown) [Compound 163], the activation at 10 µM [1] is reported as < 30%.

In the case of Cc1ccc(OCCN(C)C(=O)Cn2cc(NC(=O)CCNc3cncc(C)c3)cn2)cc1 [Compound 180], the activation at 10 µM [1] is reported as 30 to 50%.

In the case of Cc1ccc(OCCN(C)C(=O)Cn2cc(NC(=O)CCNc3cnc(C)nc3)cn2)cc1 [Compound 212], the activation at 10 µM [1] is reported as < 30%.

Compound CCc1ccc(OCCN(C)C(=O)Cn2cc(NC(=O)CCOC3CCCCC3)cn2)cc1 [Compound 5] has an activation at 10 µM [1] of 30 to 50%.

Cc1ccc(OCCN(C)C(=O)Cn2cc(NC(=O)C(CNc3ccc(F)nc3C)c3ccccc3)cn2)cc1 (stereo not shown) [Compound 167] was tested, and the activation at 10 µM [1] was < 30%.

With Cc1ccc(OCCN(C)C(=O)Cn2cc(NC(=O)CCNc3ccc(C)nc3F)cn2)cc1 [Compound 181] the activation at 10 µM [1] was < 30%.

Cc1ncccc1NCCC(=O)Nc1cnn(CC(=O)N(C)CCOc2ccc(C(F)(F)F)cc2)c1 [Compound 204] was tested, and the activation at 10 µM [1] was < 30%.

For CNC(=O)c1cnc(NCCC(=O)Nc2cnn(CC(=O)N(C)CCOc3ccc(C)cc3)c2)nc1 [Compound 211], the activation at 10 µM [1] was < 30%.

In the case of Cc1ccc(OCCN(C)C(=O)Cn2cc(NC(=O)CCNc3cnc(F)c(C)c3)cn2)cc1 [Compound 121], the activation at 10 µM [1] is reported as > 50%.

Cc1ccc(OCCN(C)C(=O)Cn2cc(NC(=O)CCOc3ccc(N)cn3)cn2)cc1 [Compound 205] was tested, and the activation at 10 µM [1] was > 50%.

Cc1ccc(OCCC(=O)Nc2cnn(CC(=O)N(C)CCOc3ncc(F)cc3F)c2)c(F)c1 [Compound 80] was tested, and the activation at 10 µM [1] was < 30%.

For Cc1ccc(OCCN(C)C(=O)Cn2cc(NC(=O)CCNc3cc(Cl)nc4nccn34)cn2)cc1 [Compound 226], the activation at 10 µM [1] was < 30%.

For Cc1ccc(OCCN(C)C(=O)Cn2cc(NC(=O)CCNc3ccccc3)cn2)cc1 [Compound 27], the activation at 10 µM [1] was > 50%.

CN(CCOc1ccc(Cl)nc1)C(=O)Cn1cc(NC(=O)CCOc2ccccc2F)cn1 [Compound 45] was tested, and the activation at 10 µM [1] was 30 to 50%.

For CCc1ccc(OCCN(C)C(=O)Cn2cc(NC(=O)CCOc3ccccc3)cn2)cc1 [Compound 26], the activation at 10 µM [1] was > 50%.

In the case of Cc1ccc(OCCN(C)C(=O)Cn2cc(NC(=O)CCNc3c(F)cncc3C(C)C)cn2)cc1 [Compound 231], the activation at 10 µM [1] is reported as > 50%.

COC(=O)Nc1cccc(OCCC(=O)Nc2cnn(CC(=O)N(C)CCOc3ccc(C)cc3)c2)n1 [Compound 261, methyl (6-(3-((1-(2-(methyl(2-(p-tolyloxy)ethyl)amino)-2-oxoethyl)-1H-pyrazol-4-yl)amino)-3-oxopropoxy)pyridin-2-yl)carbamate] showed an activation at 10 µM [1] of 30 to 50%.

For Cc1ccc(OCCN(C)C(=O)Cn2cc(NC(=O)CCNc3ncc(C(F)(F)F)cc3Cl)cn2)cc1 [Compound 130], the activation at 10 µM [1] was < 30%.

In the case of Cc1ccc(OCCN(C)C(=O)Cn2cc(NC(=O)CCOc3c(F)cncc3Br)cn2)cc1 [Compound 97], the activation at 10 µM [1] is reported as < 30%.

In the case of CC(C)c1cncc(F)c1OCCC(=O)Nc1cnn(CC(=O)N(C)CCOc2ccc(C(F)(F)F)nc2)c1 [Compound 277], the activation at 10 µM [1] is reported as > 50%.

With Cc1ccc(OCCN(C)C(=O)Cn2cc(NC(=O)CCNc3cccc(Cl)n3)cn2)cc1 [Compound 156] the activation at 10 µM [1] was > 50%.

With Cc1ccc(OCCN(C)C(=O)Cn2cc(NC(=O)CCOc3ccccc3OC(F)(F)F)cn2)cc1 [Compound 54] the activation at 10 µM [1] was 30 to 50%.

Cc1ccc(OCCN(C)C(=O)Cn2cc(NC(=O)CCNc3c(F)cnc(C)c3C)cn2)cc1 [Compound 215] was tested, and the activation at 10 µM [1] was > 50%.

For Cc1ccc(OCCN(C)C(=O)Cn2cc(NC(=O)CCNc3ccnc(N)n3)cn2)cc1 [Compound 158], the activation at 10 µM [1] was < 30%.

In the case of Cc1ccc(OCCN(C)C(=O)Cn2cc(NC(=O)CCNc3ccnc(N)c3)cn2)cc1 [Compound 153], the activation at 10 µM [1] is reported as < 30%.

Cc1ccc(OCCN(C)C(=O)Cn2cc(NC(=O)CCOc3c(F)cc(C)cc3F)cn2)cc1 [Compound 116] was tested, and the activation at 10 µM [1] was > 50%.

With Cc1ccc(OCCC(=O)Nc2cnn(CC(=O)N(C)CCOc3cc(F)c(C)c(F)c3)c2)c(F)c1 [Compound 85] the activation at 10 µM [1] was > 50%.

COc1ccc(OCCC(=O)Nc2cnn(CC(=O)N(C)CCOc3ccc(C)cc3)c2)cc1 [Compound 42] gave an activation at 10 µM [1] of 30 to 50%.

For CN(CCOc1cc(Cl)ccn1)C(=O)Cn1cc(NC(=O)CCOc2ccccc2F)cn1 [Compound 47], the activation at 10 µM [1] was < 30%.

With C=C(C)c1cccc(OCCC(=O)Nc2cnn(CC(=O)N(C)CCOc3ccc(C)cc3)c2)n1 [Compound 107] the activation at 10 µM [1] was < 30%.

Cc1ccc(OCCN(C)C(=O)Cn2cc(NC(=O)CCNc3ncncc3C(C)C)cn2)cc1 [Compound 161] was tested, and the activation at 10 µM [1] was > 50%.

With COc1cccc(OCCN(C)C(=O)Cn2cc(NC(=O)CCOc3ccc(C)cc3F)cn2)c1 [Compound 74] the activation at 10 µM [1] was < 30%.

In the case of COc1ncc(Cl)cc1NCCC(=O)Nc1cnn(CC(=O)N(C)CCOc2ccc(C)cc2)c1 [Compound 183], the activation at 10 µM [1] is reported as < 30%.

Work on Cc1ccc(OCCN(C)C(=O)Cn2cc(NC(=O)CCOc3ccc(F)nc3C)cn2)cc1 [Compound 10] yielded an activation at 10 µM [1] of 30 to 50%.

In the case of COc1cc(C)ccc1OCCN(C)C(=O)Cn1cc(NC(=O)CCNc2ncccn2)cn1 [Compound 284], the activation at 10 µM [1] is reported as < 30%.

For Cc1ccc(OCCN(C)C(=O)Cn2cc(NC(=O)CCOc3ccc(F)cc3C)c(C)n2)cc1 [Compound 65], the activation at 10 µM [1] was < 30%.

With C#CCCC1(CCC(=O)Nc2cncc(OCCC(=O)Nc3cnn(CC(=O)N(C)CCOc4ccc(C)cc4)c3)c2)N=N1 [Compound 236] the activation at 10 µM [1] was < 30%.

For Cc1ccc(OCCN(C)C(=O)Cn2cc(NC(=O)C(CNc3ncc(F)cn3)CC(C)C)cn2)cc1 (stereo not shown) [Compound 162], the activation at 10 µM [1] was < 30%.

For Cc1ccc(OCCN(C)C(=O)Cn2cc(NC(=O)CCOc3ccnc(N)c3)cn2)cc1 [Compound 104], the activation at 10 µM [1] was > 50%.

CC(C)c1cncc(F)c1OCCC(=O)Nc1cnn(CC(=O)N(C)CCOc2cnc(C(F)(F)F)cn2)c1 [Compound 278] was tested, and the activation at 10 µM [1] was > 50%.

For Cc1ccc(OCCN(C)C(=O)Cn2cc(NC(=O)CCNc3ccnc(F)n3)cn2)cc1 [Compound 136], the activation at 10 µM [1] was 30 to 50%.

For Cc1ccc(OCCN(C)C(=O)Cn2cc(NC(=O)C(C)(C)COc3ccccc3)cn2)cc1 [Compound 37, 2,2-dimethyl-N-(1-(2-(methyl(2-(p-tolyloxy)ethyl)amino)-2-oxoethyl)-1H-pyrazol-4-yl)-3-phenoxypropanamide], the activation at 10 µM was < 30%.

With Cc1ccc(OCCN(C)C(=O)Cn2cc(NC(=O)CCOC3CCCCC3(C)C)cn2)cc1 (stereo not shown) [Compound 4] the activation at 10 µM [1] was < 30%.

In the case of CCc1cc(F)ccc1OCCC(=O)Nc1cnn(CC(=O)N(C)CCOc2ccc(C)cc2)c1 [Compound 59], the activation at 10 µM [1] is reported as < 30%.

Cc1ccc(OCCN(C)C(=O)Cn2cc(NC(=O)CCNc3c(F)cncc3C3CC3)cn2)cc1 [Compound 250, 3-((3-cyclopropyl-5-fluoropyridin-4-yl)amino)-N-(1-(2-(methyl(2-(p-tolyloxy)ethyl)amino)-2-oxoethyl)-1H-pyrazol-4-yl)propanamide] was tested, and the activation at 10 µM [1] was > 50%.

For Cc1ccc(OCCN(C)C(=O)Cn2cc(NC(=O)CCOc3ncc(F)cc3C)cn2)cc1 [Compound 68], the activation at 10 µM [1] was < 30%.

For Cc1ccc(OCCN(C)C(=O)Cn2cc(NC(=O)CCNc3cccc(C#N)n3)cn2)cc1 [Compound 132], the activation at 10 µM [1] was > 50%.

In the case of Cc1ccc(OCCN(C)C(=O)Cn2cc(NC(=O)C(C)COc3ccccc3)cn2)cc1 (stereo not shown) [Compound 46, 2-methyl-N-(1-(2-(methyl(2-(p-tolyloxy)ethyl)amino)-2-oxoethyl)-1H-pyrazol-4-yl)-3-phenoxypropanamide], the activation at 10 µM [1] is reported as > 50%.

For Cc1ccc(OCCN(C)C(=O)Cn2cc(NC(=O)CCOc3cccc(C)n3)cn2)cc1 [Compound 105], the activation at 10 µM [1] was > 50%.

In the case of COc1ccc(OCCN(C)C(=O)Cn2cc(NC(=O)CCOc3ccccc3)cn2)cc1 [Compound 24], the activation at 10 µM [1] is reported as < 30%.
